Like-named read-outs stand apart in the source and are kept apart here.
Assays:
C. auris B11245 [1] = type: cell-based, Candida auris; conditions: RPMI1640, 37 °C, 48 h, CAS: paradoxical growth; for MIC of antifungal in combination with KKOO: MIC = <20% growth; for MIC of antifungal in combination with KKOO-NH2: MIC = well with <20% growth
Description: (§1) All microdilution assays with fungi were carried out in accordance with CLSI protocols from M27 for yeasts and M38 for filamentous fungi, respectively, unless otherwise specified.[64],[65] Briefly, 96-well plates were charged with RPMI1640 media, with operating volume in the first column, 200 μL, and half operating volume, 100 μL, in the remaining wells. Drug stock solution in DMSO was aliquoted into the first well in each row. Half of the volume in the dosed well was serially diluted 2-fold until column 11. Column 11 was used as the negative growth control, and column 12 was used as the positive growth control. ON yeast cultures in YPD were washed twice in DD-H2O, resuspended in PBS, and adjusted to 5000 cfu/mL in RPMI. The 96-well plate was inoculated with 100 μL aliquots of cell suspension per well. Plates were incubated at 37 °C for 2 days.
(§2) To assess drug synergy, the initial media charged to the plate contained the peptide at twice the final operating concentration; the remaining processing steps were identical to the MIC experiment. Upon addition of 100 μL of inoculant, the final operating concentration was achieved. Control MIC plates were prepared alongside drug synergy plates to account for the day-to-day variability in any individual MIC. FIC index is computed using eq 1. All MIC assays and drug synergy assays were completed with two technical replicates per 96-well plate and a minimum of two biological replicates per drug combination. If a difference in MIC between the two technical replicates on the plate were observed, only the higher concentration was reported as the MIC to reduce the possibility of type 1 error (false positive) [drawing 1] 1

Cg FKS1 S629P = assay: Drug synergy (MIC in peptide-supplemented media); type: cell-based, Candida glabrata; conditions: RPMI1640, 37 °C, 48 h
Description: as §1, §2

Cg FKS2 S663P = assay: Drug synergy (MIC in peptide-supplemented media); type: cell-based, Candida glabrata; conditions: RPMI1640, 37 °C, 48 h
Description: as §1, §2

C. glabrata 2001 [2] = assay: microbe, parasite or virus in culture; type: cell-based, Candida glabrata; conditions: Nakaseomyces glabratus, 2001; compound alone; RPMI1640, 37 °C, 48 h; read-out: MIC
Description: as §1

C. glabrata FKS2-S663P = assay: microbe, parasite or virus in culture; type: cell-based, Candida glabrata; conditions: Nakaseomyces glabratus, FKS2S663P, 48 h
Description: as §1

C. glabrata FKS1-S629P = assay: microbe, parasite or virus in culture; type: cell-based, Candida glabrata; conditions: Nakaseomyces glabratus, FKS1S629P, 48 h
Description: as §1

C. glabrata 2001 [3] = type: cell-based, Candida glabrata; conditions: RPMI1640, 37 °C, 48 h
Description: as §1, §2

C. albicans SC5413 = type: cell-based, Candida albicans; conditions: RPMI1640, 37 °C, 48 h; for MIC of antifungal in combination with KKOO: azole MICs unclear (intermediate phenotype); for MIC of antifungal in combination with KKOO-NH2: azole MICs could not be determined (intermediate phenotype)
Description: as §1, §2

A. fumigatus AF293 = assay: microbe, parasite or virus in culture; type: cell-based, Aspergillus fumigatus; conditions: Aspergillus fumigatus, AF293; compound alone; RPMI1640, 37 °C, 48 h; * = paradoxical growth observed (CAS); read-out: MIC
Description: as §1

Cn MRL862 = type: cell-based, Cryptococcus neoformans; conditions: RPMI1640, 37 °C, 48 h
Description: as §1, §2

C. auris B11245 [4] = assay: microbe, parasite or virus in culture; type: cell-based, Candida auris; conditions: Candidozyma auris, B11245; compound alone; RPMI1640, 37 °C, 48 h; * = paradoxical growth observed (CAS); read-out: MIC
Description: as §1

C[C@@H]1[C@H](O)[C@@H](C)/C=C/C=C/C=C/C=C/C=C/C=C/C=C/[C@H](O[C@@H]2O[C@H](C)[C@@H](O)[C@H](N)[C@@H]2O)C[C@@H]2O[C@](O)(C[C@@H](O)C[C@@H](O)[C@H](O)CC[C@@H](O)C[C@@H](O)CC(=O)O[C@H]1C)C[C@H](O)[C@H]2C(=O)O [AMB, amphotericin B]
0.031 µg/mL: MIC of antifungal in combination with KKOO (Cg FKS2 S663P; +4 μg/mL KKOO) | MIC of antifungal in combination with KKOO-NH2 (Cn MRL862; +2 μg/mL KKOO-NH2) | MIC of antifungal in combination with KKOO (Cn MRL862; +2 μg/mL KKOO)
0.25 µg/mL: MIC of antifungal in combination with KKOO-NH2 (C. auris B11245 [1]; +4 μg/mL KKOO-NH2) | MIC of antifungal in combination with KKOO (C. auris B11245 [1]; +4 μg/mL KKOO) | MIC of antifungal in combination with KKOO-NH2 (Cg FKS1 S629P; +1 μg/mL KKOO-NH2) | MIC of antifungal in combination with KKOO (Cg FKS1 S629P; +2 μg/mL KKOO) | MIC of antifungal in combination with KKOO (Cg FKS1 S629P; +4 μg/mL KKOO) | MIC of antifungal in combination with KKOO (Cg FKS2 S663P; +0 μg/mL KKOO (control)) | MIC of antifungal in combination with KKOO-NH2 (Cg FKS2 S663P; +0 μg/mL KKOO-NH2 (control)) | MIC of antifungal in combination with KKOO-NH2 (Cg FKS2 S663P; +1 μg/mL KKOO-NH2) | MIC of antifungal in combination with KKOO (Cg FKS2 S663P; +1 μg/mL KKOO) | MIC of antifungal in combination with KKOO-NH2 (C. glabrata 2001 [3]; +2 μg/mL KKOO-NH2) | MIC of antifungal in combination with KKOO (C. glabrata 2001 [3]; +2 μg/mL KKOO) | MIC of antifungal in combination with KKOO-NH2 (C. glabrata 2001 [3]; +4 μg/mL KKOO-NH2) | MIC of antifungal in combination with KKOO (C. glabrata 2001 [3]; +4 μg/mL KKOO) | MIC of antifungal in combination with KKOO-NH2 (C. albicans SC5413; +2 μg/mL KKOO-NH2) | MIC of antifungal in combination with KKOO (C. albicans SC5413; +2 μg/mL KKOO) | MIC of antifungal in combination with KKOO-NH2 (C. albicans SC5413; +4 μg/mL KKOO-NH2) | MIC of antifungal in combination with KKOO (Cn MRL862; +0 μg/mL KKOO (control)) | MIC of antifungal in combination with KKOO-NH2 (Cn MRL862; +0 μg/mL KKOO-NH2 (control))
0.125 µg/mL: MIC of antifungal in combination with KKOO-NH2 (Cg FKS1 S629P; +2 μg/mL KKOO-NH2) | MIC of antifungal in combination with KKOO (Cg FKS2 S663P; +2 μg/mL KKOO) | MIC of antifungal in combination with KKOO (C. glabrata 2001 [3]; +8 μg/mL KKOO) | MIC of antifungal in combination with KKOO (C. albicans SC5413; +4 μg/mL KKOO) | MIC of antifungal in combination with KKOO (C. albicans SC5413; +8 μg/mL KKOO) | MIC of antifungal in combination with KKOO-NH2 (Cn MRL862; +1 μg/mL KKOO-NH2) | MIC of antifungal in combination with KKOO (Cn MRL862; +1 μg/mL KKOO)
1 µg/mL: MIC of antifungal in combination with KKOO (C. auris B11245 [1]; +0 μg/mL KKOO (control)) | MIC of antifungal in combination with KKOO-NH2 (C. auris B11245 [1]; +0 μg/mL KKOO-NH2 (control)) | MIC of antifungal in combination with KKOO (Cg FKS1 S629P; +0 μg/mL KKOO (control)) | MIC (C. glabrata 2001 [2]) | MIC (C. glabrata FKS2-S663P) | MIC (C. glabrata FKS1-S629P) | MIC of antifungal in combination with KKOO (C. glabrata 2001 [3]; +0 μg/mL KKOO (control)) | MIC of antifungal in combination with KKOO-NH2 (C. glabrata 2001 [3]; +0 μg/mL KKOO-NH2 (control)) | MIC of antifungal in combination with KKOO (C. albicans SC5413; +0 μg/mL KKOO (control)) | MIC of antifungal in combination with KKOO-NH2 (C. albicans SC5413; +0 μg/mL KKOO-NH2 (control)) | MIC (A. fumigatus AF293) | MIC (C. auris B11245 [4])
0.5 µg/mL: MIC of antifungal in combination with KKOO-NH2 (C. auris B11245 [1]; +1 μg/mL KKOO-NH2) | MIC of antifungal in combination with KKOO (C. auris B11245 [1]; +1 μg/mL KKOO) | MIC of antifungal in combination with KKOO-NH2 (C. auris B11245 [1]; +2 μg/mL KKOO-NH2) | MIC of antifungal in combination with KKOO (C. auris B11245 [1]; +2 μg/mL KKOO) | MIC of antifungal in combination with KKOO-NH2 (Cg FKS1 S629P; +0 μg/mL KKOO-NH2 (control)) | MIC of antifungal in combination with KKOO (Cg FKS1 S629P; +1 μg/mL KKOO) | MIC of antifungal in combination with KKOO-NH2 (C. glabrata 2001 [3]; +1 μg/mL KKOO-NH2) | MIC of antifungal in combination with KKOO (C. glabrata 2001 [3]; +1 μg/mL KKOO) | MIC of antifungal in combination with KKOO-NH2 (C. albicans SC5413; +1 μg/mL KKOO-NH2) | MIC of antifungal in combination with KKOO (C. albicans SC5413; +1 μg/mL KKOO)
0.016 µg/mL: MIC of antifungal in combination with KKOO-NH2 (Cg FKS2 S663P; +4 μg/mL KKOO-NH2) | MIC of antifungal in combination with KKOO-NH2 (Cn MRL862; +4 μg/mL KKOO-NH2) | MIC of antifungal in combination with KKOO (Cn MRL862; +4 μg/mL KKOO)
0.062 µg/mL: MIC of antifungal in combination with KKOO-NH2 (Cg FKS1 S629P; +4 μg/mL KKOO-NH2) | MIC of antifungal in combination with KKOO-NH2 (Cg FKS2 S663P; +2 μg/mL KKOO-NH2)

Reference: publication PMC11555678, “Improved Broad Spectrum Antifungal Drug Synergies with Cryptomycin, a Cdc50-Inspired Antifungal Peptide” (ACS Infectious Diseases, 2024)
